Test results as given in patent US9517267B2, “Photodynamic diagnostic agent and photobleaching inhibitor” (SBI Pharmaceuticals Co., Ltd., priority 2012, dated 2016).
“Also recorded” adds a separate entry of the source.

Key:
[1] = Photobleaching inhibitory effect for porphyrins by each alkyl gallate in solution (Example 4); type: physicochemical; details: 50 mM alkyl gallate, 1 μM PpIX; for t/2 of PpIX fluorescence intensity: excitation 402 nm, 0.4 mA, pseudo-first-order
Procedure: The photobleaching inhibitory effect for porphyrins by gallic acids was measured with the following procedure. Methyl gallate (MeG, from Wako, Cat. No. 134-09812), butyl gallate (BuG, from Wako, Cat. No. 322-67472), n-propyl gallate (PrG, from Wako, Cat. No. 162-06832), and octyl gallate (OcG, from Wako, Cat. No. 322-56482) were employed as gallic acids. The gallic acids employed here are all compounds having a linear alkyl.
(§1) (1) In order to prepare 50 mM solutions of each alkyl gallate, 0.3 mmol of each alkyl gallate was placed in a 15 mL tube, and 6 mL of 50% glycerol PBS solution (a mixture of glycerol and PBS at a proportion of 1:1, hereinafter may be notated as “Gly+PBS” or “Gly+PBS solution”) or DMSO was added and dissolved.
(3) After dispensing 990 μL of alkyl gallate into a 2 mL vial, 10 μL of 100 μM PpIX was added (final concentration of PpIX at 1 μM).
(4) Measurement of the fluorescence spectrum was performed for each alkyl gallate+PpIX solution prepared in (3) with a simplified fluorescence measurement device. LED was employed as the light source, the wavelength of the excitation light employed was 402 nm, the output current was set at 0.4 mA, and the measurement interval was every 10 seconds until 180 seconds for measurement.
For each of the plots above in FIG. 14 and FIG. 15 when a Gly+PBS solution and a DMSO solution was employed as the solvent for gallic acid, the relative fluorescence intensity was calculated by setting the fluorescence intensity immediately post irradiation (0 seconds later) as 1, and the transition of fluorescence intensity of PpIX was plotted with the calculated relative intensity as the vertical axis as shown in FIG. 16 and FIG. 17, respectively. This transition of relative fluorescence intensity was treated as a pseudo-first-order reaction to determine the half-life, and shown in Table 2 and Table 3, respectively.

[2] = Dissolution of alkyl gallates at 50 mM in Gly+PBS or DMSO; type: physicochemical; details: for solubility in Gly+PBS solution: 0.3 mmol in 6 mL (50 mM) 50% glycerol PBS
Procedure: as §1

PpIX in MKN45 cells [3] = experiment: Photobleaching inhibitory effect for PpIX produced from ALA in cells with gallic acids or other reductants (Example 1); type: cell-based; details: excitation 400 nm, fluorescence 635 nm; for photobleaching inhibitory effect for PpIX: 1 mM ALA 24 h, reductant in 50% glycerol PBS (NPG 2%, PPD 0.5%, DABCO 5%, Prolong Gold as sold), 0-180 s
Procedure: (§2) MKN45 cells were seeded in a 35 mm dish at 0.5×10^6 cells, and the culture medium on the 35 mm dish was 2 mL. Ten μL of 0.2 M ALA hydrochloride (5-aminolevulinic acid hydrochloride) solution was added to the 2 mL of culture medium in the 35 mm dish to achieve the final concentration of ALA in the culture medium at 1 mM. This 35 mm dish was cultured in a 5% CO2 incubator at 37° C. for 24 hours. The cells were then washed with 1 ml of PBS, 1 mL of each of the following reductant solutions (dissolved in 50% glycerol PBS solution) were added on ice, the cells were immediately scraped off with a cell scraper, and the cells were suspended by pipetting. The fluorescence intensity at 635 nm of each of these cell suspensions under the excitation light at 400 nm was measured. The fluorescence intensity was measured from 0 seconds post irradiation of excitation light for every 10 seconds until 180 seconds post irradiation. Not limited to Example 1, the measurement of fluorescence intensity was performed with irradiation of the excitation light even after the 0 seconds post irradiation of excitation light.
The following were employed at the following final concentrations as each reductant:
Paraphenylenediamine (hereinafter abbreviated as “PPD”): 0.5%
n-propyl gallate (hereinafter abbreviated as “NPG”): 2%
1-4-diazabicyclo[2.2.2]-octane (hereinafter abbreviated as “DABCO”): 5%
Prolong Gold™: approximately 1% as the active ingredient sodium azide
Since Prolong Gold (an anti-fade agent from Invitrogen) was sold as a solution containing approximately 1% of sodium azide, it was added directly as the commercially available solution without employing 50% glycerol/PBS to carry out the investigation.

PpIX in MKN45 cells [4] = experiment: Photobleaching inhibitory effect for PpIX produced from ALA in cells with other reductants (Example 2); type: cell-based; details: 1 mM ALA 24 h, ascorbic acid 500 μM, tocopherol 500 μM, lutein 10 μM in PBS, excitation 400 nm, fluorescence 635 nm, 0-180 s
Procedure: Photobleaching suppression effect for PpIX was measured for other reductants. The following were employed as the reductants. Each reductant solution was prepared by the following method and each of the prepared solutions was used as sample solvents for photobleaching measuring.
Solution supplemented with 5 μL of ascorbic acid (solvent: milli Q, concentration of supplemented solution: 100 mM) was added to 1 mL of PBS to prepare an ascorbic acid solution having a final concentration of 500 μM.
Solution supplemented with 5 μL of tocopherol (solvent: DMSO, concentration of supplemented solution: 100 mM) was added to 1 mL of PBS to prepare a tocopherol solution having a final concentration of 500 μM.
Solution supplemented with 5 μL of lutein (solvent: DMSO, concentration of supplemented solution: 2 mM) was added to 1 mL of PBS to prepare a lutein solution having a final concentration of 10 μM.
MKN45 cells were seeded in a 35 mm dish at 0.5×10^6 cells, and the culture medium on the 35 mm dish was 2 mL. Ten μL of 0.2 M ALA hydrochloride (5-aminolevulinic acid hydrochloride) solution was added to the 2 mL of culture medium in the 35 min dish to achieve the final concentration of ALA in the culture medium at 1 mM. This 35 mm dish was cultured in a 5% CO2 incubator at 37° C. for 24 hours. The cells were then washed with 1 ml of PBS, and then 1 mL of each of the reductant solutions prepared as above were added, the cells were immediately scraped off with a cell scraper, and the cells were suspended by pipetting. The fluorescence intensity at 635 nm of each of these cell suspensions under the excitation light at 400 nm was measured. The fluorescence intensity was measured from 0 seconds post irradiation of excitation light for every 10 seconds until 180 seconds post irradiation. The measurement of fluorescence intensity was performed with irradiation of the excitation light even after the 0 seconds post irradiation of excitation light.

PpIX in MKN45 cells [5] = experiment: PpIX fluorescence half-life in ALA-loaded cells with 1% NPG at varied excitation light intensity (Example 3); type: cell-based
Procedure: as §2
In a method similar to Example 1, 1 mL of 1% n-propyl gallic acid (NPG) solution was added, and the intensity of the excitation light was altered to 0.1 mA, 0.2 mA, 0.3 mA, and 0.4 mA to measure the fluorescence intensity.

[6] = Absorption spectrum 350 nm-750 nm of alkyl gallate solutions; type: physicochemical; details: 50 mM alkyl gallate solution
Procedure: (2) Measurement of the absorption spectrum at 350 nm-750 nm was performed with 1000 μL of each alkyl gallate solution prepared in (1).
Since the fluorescent substance protoporphyrin IX (PpIX) has a sharp absorbance at around 400 nm, and a light at around 400 nm is employed as the excitation light, it was deemed possible that excitation of PpIX could be inhibited when employing butyl gallate.

[7] = Gly + PBS solution, fluorescence 627 nm

Row | Compound | fluorescence intensity of PpIX after 30 seconds and 60 seconds relative to 0 seconds ([1]; DMSO solution) | t/2 of PpIX fluorescence intensity ([1]; DMSO, fluorescence 632 nm) | photobleaching inhibitory effect for PpIX (PpIX in MKN45 cells [3]) | effect of inhibiting photobleaching of PpIX (PpIX in MKN45 cells [4]) | t/2 of PpIX fluorescence intensity [1, 7] | fluorescence intensity of PpIX after 30 seconds and 60 seconds relative to 0 seconds ([1]; Gly+PBS solution) | other results
1 | CCCCCCCCOC(=O)c1cc(O)c(O)c(O)c1 [OcG, octyl gallate] | only modestly reduced | 239.0 s | – | – | – | – | solubility in Gly+PBS solution [2]: could not be dissolved
2 | Nc1ccc(N)cc1 [PPD, Paraphenylenediamine] | – | – | a state of high fluorescence intensity as with NPG could not be maintained; also recorded: no or almost no effect | – | – | – | fluorescence intensity at 0 seconds post irradiation of excitation light (PpIX in MKN45 cells [3]; 1 mM ALA, PPD 0.5%): markedly reduced
3 | O=C1O[C@H]([C@@H](O)CO)C(O)=C1O [ascorbic acid] | – | – | – | do not have the effect of inhibiting photobleaching; also recorded: no or almost no effect | – | – | –
4 | CCCOC(=O)c1cc(O)c(O)c(O)c1 [NPG, n-propyl gallate] | only modestly reduced | 231.0 s | superior photobleaching inhibitory effect was observed | – | 239.0 s | only modestly reduced | fluorescence intensity after 180 seconds post irradiation, relative to control at 0 seconds (PpIX in MKN45 cells [3]; 1 mM ALA, NPG 2%): about half; duration of fluorescence in fluorescence microscope images (PpIX in MKN45 cells [5]; 1% NPG vs vehicle, 0, 1, 2, 3 minutes post irradiation (FIG. 4)): fluorescence was maintained for a longer duration; prolongation of half-life versus vehicle (PpIX in MKN45 cells [5]; excitation light 0.4 mA, NPG 1%): three folds
5 | CCCCOC(=O)c1cc(O)c(O)c(O)c1 [BuG, butyl gallate] | only modestly reduced | 533.2 s | – | – | 385.1 s | only modestly reduced | solubility in Gly+PBS solution [2]: able to dissolve; solubility in DMSO ([2]; 0.3 mmol in 6 mL (50 mM) DMSO): able to dissolve; absorbance at around 400 nm [6]: found to have absorbance at around 400 nm
6 | tocopherol | – | – | – | do not have the effect of inhibiting photobleaching; also recorded: no or almost no effect | – | – | –
7 | COC(=O)c1cc(O)c(O)c(O)c1 [MeG, Methyl gallate] | only modestly reduced | 239.0 s | – | – | 346.6 s | only modestly reduced | –
8 | C1CN2CCN1CC2 [DABCO, 1-4-diazabicyclo[2.2.2]-octane] | – | – | insufficient; also recorded: no or almost no effect | – | – | – | –
9 | CC1=C[C@H](O)CC(C)(C)[C@H]1/C=C/C(C)=C/C=C/C(C)=C/C=C/C=C(C)/C=C/C=C(C)/C=C/C1=C(C)C[C@@H](O)CC1(C)C [lutein] | – | – | – | do not have the effect of inhibiting photobleaching | – | – | –
